From PubChem BioAssay (NCI) come the findings set out here.

Some test systems named below: NCI-H226 lung; SF-295 CNS; CCRF-CEM leukemia; SK-MEL-2 melanoma; UACC-257 melanoma; OVCAR-8 ovarian; U251 CNS; SR leukemia; HOP-92 NSCLC; IGROV1 ovarian.
Common to all, as to test: DTP human tumour cell line panel, 48 h

The structures appear in SMILES notation. Several values for one entry are separate records, joined by “and”; a condition that tells them apart may be missing. Identical values can stand only once.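 All cell lines were grown in 96-well plates and treated with compound for 48 hours. At the GI50, growth is halved. TGI: concentration producing complete growth inhibition.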

Take `NC(=N\N=C/c1cccc([N+](=O)[O-])c1)/C(N)=N\N=C/c1cccc([N+](=O)[O-])c1`: the GI50 in the test with NCI-H226 lung, in the test with SF-295 CNS, with CCRF-CEM leukemia, in the test with SK-MEL-2 melanoma, in the test on UACC-257 melanoma and in the test with OVCAR-8 ovarian was greater than 100 µM in each case. Further, the GI50 in the test with U251 CNS, in the test on SR leukemia, in the test with HOP-92 NSCLC and in the test with IGROV1 ovarian was greater than 100 µM throughout. Moreover, the TGI in the test on NCI-H226 lung, with SF-295 CNS, in the test with CCRF-CEM leukemia, with SK-MEL-2 melanoma, with UACC-257 melanoma and in the test on OVCAR-8 ovarian was greater than 100 µM in each case. Besides, the TGI in the test with U251 CNS, with SR leukemia, in the test with HOP-92 NSCLC and with IGROV1 ovarian was greater than 100 µM each time.
In the case of `C=CCN1C=CC(=O)[C@H](O[Si](C)(C)C(C)(C)C)[C@@H]1/C=C/c1ccccc1`, the GI50 – broadly, the concentration at which growth is held to half of that of the control – was 17.9 µM in the test with NCI-H226 lung; 9.9 µM with SF-295 CNS; 15.2 µM in the test with CCRF-CEM leukemia; 17 µM in the test with SK-MEL-2 melanoma; 17.9 µM with UACC-257 melanoma; 30.6 µM in the test on OVCAR-8 ovarian. The GI50 in the test on U251 CNS was 12.4 µM; in the test with SR leukemia, 5.21 µM; in the test with HOP-92 NSCLC, 7.05 µM; with IGROV1 ovarian, 17.1 µM. Further, the TGI (in general, the concentration giving total growth inhibition) was 36.9 µM with NCI-H226 lung; 24.9 µM in the test on SF-295 CNS; 40.1 µM in the test with CCRF-CEM leukemia; 34.2 µM in the test with SK-MEL-2 melanoma; 37.2 µM with UACC-257 melanoma; greater than 100 µM in the test with OVCAR-8 ovarian. Moreover, the TGI came out at 25.2 µM with U251 CNS, 26.1 µM in the test with SR leukemia, 21.1 µM in the test on HOP-92 NSCLC and 34 µM with IGROV1 ovarian.
As to `COc1cc2c(cc1OCCCCCCN1CCN(c3ncnc4ccccc34)CC1)N=CC1CCCN1C2=O` (centres undefined), the GI50 in the test on NCI-H226 lung is 0.125 µM; in the test with SF-295 CNS, 0.0508 µM; with CCRF-CEM leukemia it was 0.026 µM; in the test with SK-MEL-2 melanoma it was 0.195 µM; in the test with UACC-257 melanoma, 0.237 µM; in the test with OVCAR-8 ovarian, 0.188 µM. The GI50 is 0.0736 µM in the test with U251 CNS, less than 0.0174 µM in the test on SR leukemia, 0.0456 µM with HOP-92 NSCLC and 0.0602 µM in the test on IGROV1 ovarian. In addition, the TGI with NCI-H226 lung is 0.33 µM; in the test on SF-295 CNS, 1.03 µM; with CCRF-CEM leukemia, 0.302 µM; in the test with SK-MEL-2 melanoma, 1.83 µM; in the test with UACC-257 melanoma, 14.1 µM; with U251 CNS, 1.05 µM. In addition, the TGI with SR leukemia is less than 0.0321 µM; in the test on HOP-92 NSCLC it was 0.408 µM; in the test with IGROV1 ovarian, 0.209 µM.
`CC1=C2C[C@H]3[C@@H](CC=C4C[C@@H](O)CC[C@@]43C)[C@@H]2CC[C@]12O[C@@H]1C[C@H](C)CN[C@H]1[C@H]2C`: the GI50 is > 50 µM and 23.1 µM in the test on NCI-H226 lung; 40.8 µM and 19 µM in the test with SF-295 CNS; 22.6 µM and 23.4 µM in the test with CCRF-CEM leukemia; 12.3 µM and 23.4 µM in the test with SK-MEL-2 melanoma; 20.3 µM and 17.3 µM in the test on UACC-257 melanoma; 11.6 µM and 20.2 µM in the test on OVCAR-8 ovarian. For the same molecule, the GI50 in the test with U251 CNS was 7.96 µM and 18.6 µM; in the test on SR leukemia, 3.42 µM; with HOP-92 NSCLC, 21.6 µM; in the test with IGROV1 ovarian it was 40.5 µM and 17.5 µM. Further, the TGI in the test on NCI-H226 lung was > 50 µM and 55.3 µM; in the test on SF-295 CNS it was 50 µM and 40.2 µM; with CCRF-CEM leukemia, 50 µM and 80 µM; with SK-MEL-2 melanoma, 38.4 µM and 51.6 µM; in the test with UACC-257 melanoma, 50 µM and 33.1 µM; in the test on OVCAR-8 ovarian it was 50 µM and 48.5 µM. In addition, the TGI in the test with U251 CNS is 18.3 µM and 39.6 µM; with SR leukemia, 21.9 µM; with HOP-92 NSCLC, 57.9 µM; in the test on IGROV1 ovarian, 50 µM and 38.9 µM.
With `COc1cc2c(Oc3ccc4[nH]c(C)cc4c3F)ccnc2cc1OCC1(N)CC1`, the GI50 in the test with NCI-H226 lung is 0.894 µM; with SF-295 CNS, 1.07 µM; in the test on CCRF-CEM leukemia, 1.57 µM; with SK-MEL-2 melanoma, 1.68 µM; with UACC-257 melanoma it was 1.67 µM; in the test on OVCAR-8 ovarian it was 2.92 µM. Also, the GI50 is 0.674 µM in the test with U251 CNS, 0.395 µM with SR leukemia, 1.03 µM in the test on HOP-92 NSCLC and 1.16 µM in the test with IGROV1 ovarian. Further, the TGI in the test with NCI-H226 lung was 14.9 µM; with SF-295 CNS it was 3.92 µM; in the test on CCRF-CEM leukemia it was 12.9 µM; in the test with SK-MEL-2 melanoma it was 3.79 µM; with UACC-257 melanoma it was 3.63 µM; in the test on OVCAR-8 ovarian, greater than 100 µM. For the same molecule, the TGI with U251 CNS was found to be 7.15 µM; in the test on SR leukemia, 4.31 µM; with HOP-92 NSCLC, 7.11 µM; in the test on IGROV1 ovarian, 13 µM.
For `COc1cccc(-c2nc3sccn3c2-c2ccnc(NCCNS(=O)(=O)c3ccccc3)c2)c1`, the GI50 with NCI-H226 lung is 2.48 µM; in the test with SF-295 CNS, 2.62 µM; with CCRF-CEM leukemia it was 1.88 µM; in the test with SK-MEL-2 melanoma, 1.96 µM; with UACC-257 melanoma, 4.47 µM; in the test on OVCAR-8 ovarian, 2.13 µM. The GI50 in the test on U251 CNS is 3.9 µM; in the test with SR leukemia it was 3.21 µM; with HOP-92 NSCLC, 0.596 µM; with IGROV1 ovarian, 2.2 µM. Also, the TGI was 10.5 µM in the test on NCI-H226 lung; greater than 100 µM with SF-295 CNS; greater than 100 µM in the test with CCRF-CEM leukemia; 5.96 µM in the test with SK-MEL-2 melanoma; 55.2 µM with UACC-257 melanoma; greater than 100 µM with OVCAR-8 ovarian. The TGI with U251 CNS is greater than 100 µM; with SR leukemia it was greater than 100 µM; with HOP-92 NSCLC it was 33.6 µM; in the test on IGROV1 ovarian, greater than 100 µM.
`COC(=O)c1c2c(c(C)[n+]([O-])c1C)C(=O)C=C(NCc1ccc(OC)cc1)C2=O`: the GI50 in the test with NCI-H226 lung was 2.66 µM; in the test with SF-295 CNS, 1.36 µM; with CCRF-CEM leukemia it was 1.29 µM; with SK-MEL-2 melanoma, 2.14 µM; in the test with UACC-257 melanoma it was 0.758 µM; in the test with OVCAR-8 ovarian, 1.11 µM. Besides, the GI50 in the test on U251 CNS was 2.05 µM; in the test with SR leukemia it was 3.5 µM; in the test on HOP-92 NSCLC, 2.35 µM; in the test on IGROV1 ovarian, 1.06 µM. The TGI stood at 7.94 µM in the test on NCI-H226 lung; 3.83 µM with SF-295 CNS; 14 µM with CCRF-CEM leukemia; 6.64 µM in the test with SK-MEL-2 melanoma; 2.08 µM in the test with UACC-257 melanoma; 4.48 µM in the test with OVCAR-8 ovarian. For the same molecule, the concentration for total growth inhibition (TGI) in the test on U251 CNS was 5.48 µM; in the test on SR leukemia, greater than 100 µM; with HOP-92 NSCLC, 6.12 µM; in the test on IGROV1 ovarian, 3.59 µM.
